Experimental data reported in patent US5629289A, “Cyclic peptide antifungal agents” (Eli Lilly and Company, priority 1995, dated 1997).
Values after ≈ are worked out from the molar mass of the structure shown. *1 amine or outer side, *2 acyl side, *3 side chain or, on linkers, in order; H or OH if unused. Where a SMILES comes first, the peptide text is derived from it. Bridges are numbered along the chain shown (N, C = ends). [ ]: non-standard residue; d: D form. The star is where a group is joined. ξ: configuration not given here. pTerphenylCO(4''-OnC5H11) = CCCCCOc1ccc(-c2ccc(-c3ccc(C(=O)*)cc3)cc2)cc1; ξOrn(4ξ-OH) = O=C(C(CC(O)CN[*:3])N[*:1])[*:2]; ξhTyr(βOH) = NC(C(=O)O)C(O)Cc1ccc(O)cc1; ξPro(3ξ-OH,4ξ-Me) = CC1CNC(C(=O)O)C1O; ξHyp = O=C(O)C1CC(O)CN1

Tested on: C. albicans
Assay type: cell-based
Method: Antifungal activity of a test compound is determined in vitro by obtaining the minimum inhibitory concentration (MIC) of the compound using a standard agar dilution test or a disc-diffusion test. The compound is then tested in vivo (in mice) to determine the effective dose of the test compound for controlling a systemic fungal infection. Accordingly, the compound prepared in Example 1C was tested for antifungal activity against C. albicans.

SMILES: CCCCCOc1ccc(-c2ccc(-c3ccc(C(=O)NC4CC(O)CNC(=O)C5C(O)C(C)CN5C(=O)CNC(=O)C(C(O)Cc5ccc(O)cc5)NC(=O)C5CC(O)CN5C(=O)CNC4=O)cc3)cc2)cc1 (stereo not shown) [Example 1C] ({pTerphenylCO(4''-OnC5H11)}-[ξOrn(4ξ-OH)]G[ξHyp][ξhTyr(βOH)]G[ξPro(3ξ-OH,4ξ-Me)]; lactam 1-C)
- minimal inhibitory concentration (MIC) against C. albicans: 0.312 µg/mL (≈ 0.306 µM)
